Reference: ChEMBL document CHEMBL1150438, “Benzimidazole ribonucleosides: Observation of an unexpected nitration when performing non-aqueous diazotizations with t-butyl nitrite” (Bioorg Med Chem Lett, 1992)

Tests used:
HFF = assay: Cytotoxicity against human foreskin fibroblasts (HFF) cells; assay type: functional, cell-based
Human alphaherpesvirus 1 = assay: Compound was tested for antiviral activity against HSV-1; assay type: functional, organism-based
Human betaherpesvirus 5 [1] = assay: Compound was tested for antiviral activity against human cytomegalovirus (HCMV) plaque reduction assay; assay type: functional, organism-based
Human betaherpesvirus 5 [2] = assay: Compound was tested for antiviral activity against human cytomegalovirus (HCMV) yield reduction assay; assay type: functional

| IC50 (Human alphaherpesvirus 1) [µM] | IC50 (Human betaherpesvirus 5 [1]) [µM] | SMILES | IC50 (HFF) [µM] | IC90 (Human betaherpesvirus 5 [2]) [µM] |
| --- | --- | --- | --- | --- |
| > 100 | > 100 | Nc1c(Cl)c(Cl)cc2c1nc(O)n2C1O[C@H](CO)[C@@H](O)[C@H]1O (some centres not stated) | > 100 |  |
| > 100 | > 100 | OC[C@H]1OC(n2c(O)nc3cc(Cl)c(Cl)cc32)[C@H](O)[C@@H]1O (some centres not stated) |  |  |
| > 100 | > 100 | O=[N+]([O-])c1c(Cl)c(Cl)cc2c1nc(O)n2C1O[C@H](CO)[C@@H](O)[C@H]1O (some centres not stated) |  |  |

Further lines, the molecule ahead of its results:

| SMILES | IC50 (Human alphaherpesvirus 1) [µM] | IC50 (Human betaherpesvirus 5 [1]) [µM] | IC50 (HFF) [µM] | IC90 (Human betaherpesvirus 5 [2]) [µM] |
| --- | --- | --- | --- | --- |
| OC[C@H]1OC(n2c(I)nc3cc(Cl)c(Cl)cc32)[C@H](O)[C@@H]1O (some centres not stated) |  |  | 127 | 26 |
| OC[C@H]1O[C@@H](n2cnc3cc(Cl)c(Cl)cc32)[C@H](O)[C@@H]1O [DICHLORORIBOBENZIMIDAZOLE] |  |  |  | 19 |
| Nc1nc2c(ncn2COC(CO)CO)c(=O)[nH]1 [GANCICLOVIR] |  |  | > 100 | 2 |
